Entries after “also recorded” stand apart in the source; their conditions may differ. Primed or numbered codes have the meaning given here. Where no end group is shown, it is not given here. FITC′ = fluorescein isothiocyanate label; Ahx = NCCCCCC(=O)O
Experiments:
[1] = test system: cleavage of Substrate M by rhBACE (recombinant human β-secretase); assay: Fluorometric (FRET) assay for cleavage of F-Substrate M by β-secretase; format: biochemical; settings: for inhibitory activity of deletion peptides on cleavage of Substrate M: 10 inhibitor/substrate ratio, Substrate M 50 μM; for inhibitory activity group on Substrate M cleavage: tested at various concentrations (FIG. 8); for inhibition of cleavage of Substrate M by β-secretase: in vitro, rhBACE1
From the text: This assay system utilizes fluorescence resonance energy transfer (FRET) technology. Substrate M was synthesized with two fluorophores, a fluorescent donor and a proprietary quenching acceptor (purchased from a commercial source, R&D Systems). […] Upon cleavage of substrate by β-secretase, the fluorophore is separated from the quenching group, restoring the full fluorescence yield of donor.
Substrate labeled with fluorophores will be called F-Substrate M (R&D Systems). Recombinant human β-secretase will be called rhBACE (recombinant human β-site APP cleavage enzyme) (purchased from R&D systems).
[…] Cleavage by rhBACE was detected by reading emitted fluorescence level.
In this assay system, fluorescence resonance energy transfer (FRET) technology was utilized. […] After pre-incubation, substrate and HC peptide mixture in assay buffer was transferred to FluoroNunc™ 96 well white plate (Nunc, Roskilde, Denmark), and rhBACE1 (70 nM) was added. Time-dependent emission of fluorescence (excitation at 320 nm, emission at 405 nm) was monitored in a Molecular Devices SpectraMax Gemini EM fluorescence reader (CA, USA) for 1 h at 37° C. All assays were carried out in duplicate.

[2] = molecular target: T1, Substrate W (SEVKMDAEFR, β-secretase cleavage site of wild type APP) (Homo sapiens, UniProt P05067); assay: Binding of biotin-labeled Substrate W to immobilized complementary (HC) peptides; settings: biotin-labeled Sub W, peptide immobilized on plate
T1 construct: purchased Peptron, Inc; host or cells: chemical synthesis
Procedure: (§1) Complementary peptides (0.2, 2, 20, and 200 μM) were dissolved in phosphate buffered saline (PBS) (pH 7.4) and fixed to microtiter wells for 5 hr at 37° C. The wells were blocked with blocking buffer (3% BSA/PBS) for 1 hr at 37° C. Either N-terminally biotinylated Substrate W or M (20 μM) in blocking buffer was added and incubated for overnight at 4° C. Streptavidin-horseradish peroxidase in blocking buffer was added to detect resulting bound substrates. The plate was incubated for 2 hr at room temperature (RT), followed by addition of 3, 3′, 5,5′-tetramethyl-benzidine (TMB) as substrate for horseradish peroxidase for color reaction.
In particular, for Substrate W, complementary peptides (200 μM) dissolved in phosphate buffered saline (PBS) (pH 7.4) were chemically coupled to Reacti-Bind Maleic Anhydride Activated Polystyrene wells (Pierce Biotechnology, Inc.) for overnight at room temperature (RT). Remaining active sites of the plate were inactivated by adding ethanolamine (1 M) for 1 hr at RT. The wells were blocked with blocking buffer (3% BSA/PBS) for 1 hr at RT. N-terminally biotinylated Substrate W (20 μM) in blocking buffer was added and incubated for 3 hr at RT. Streptavidin-horseradish peroxidase in blocking buffer was added to detect resulting bound substrates. The plate was incubated for 2 hr at room temperature (RT), followed by addition of 3,3′,5,5′-tetramethyl-benzidine (TMB) as substrate for horseradish peroxidase for color reaction.
(§2) Reacti-Bind™ maleic anhydride-activated polystyrene plate (Pierce, IL, USA) was coated with 50 μl of HC peptide (200 μM in distilled water) by chemical coupling for 3 h at room temperature (RT) and washed three times with phosphate buffered saline (PBS) containing 0.05% tween 20 (PBST). The plate was blocked with blocking buffer (0.5% gelatin in PBS) for 1 h at RT. After discarding blocking buffer, biotinylated BACE1 substrates (200 μM) in blocking buffer was applied on the plate and incubated for 2.5 h at RT. Each well was washed three times with PBST. The bound biotinylated BACE1 substrates were detected by incubation with streptavidin-horseradish peroxidase (Str-HRP, 125 mU/ml in blocking buffer) for 2 h at RT. Color reaction was carried out with 50 μl of 3,3′,5,5′-Tetramethylbenzidine Liquid Substrate (Sigma-Aldrich, MO, USA). After stopping the reaction by addition of an equal volume of 1 N HCl, absorbance at 450 nm was read in an automated ELISA reader (EL 312e, Bio-Tek Instruments, VT, USA). All assays were carried out in duplicate.

[3] = test system: Substrate M (SEVNLDAEFR, β-secretase cleavage site of APPsw); assay: Binding of biotin-labeled Substrate M to immobilized complementary (HC) peptides; settings: biotin-labeled Sub M, peptide immobilized on plate
Procedure: as §1, §2

[4] = test system: APP processing in HEK293-APP cells; assay: Cell based assay of APP processing (βCTF, Western blot) in HEK293-APP cells; parameters: species or system human
Procedure: In the neuronal cells of the brain, APP is processed by α-secretase or β-secretase. To investigate the effects of the inhibitors on the cell, a cell based assay system was developed as described in FIG. 10. C-terminal fragment of APP remaining on the cell membrane was detected by Western blot. The resulting C-terminal fragments, αCTF or βCTF are further processed by γ-secretase. However, if the cells are treated with the γ-secretase inhibitor, this processing is blocked. As a result, αCTF or βCTF accumulate in the cell. If β-secretase inhibitor or APP inhibitor is added, this processing is blocked and βCTF disappears.
To test APP inhibitor activities in cells, three complementary peptides, c-Sub M, c-Sub MΔC6, and c-Sub MΔN1C1, which show high absorbance in binding test, were added to whole cell extracts of HEK293-APP cells (Lanes 2, 3, and 4 in FIG. 11). In addition, γ-secretase inhibitor and cholesterol were added to the cells to increase βCTF level. Commercially available peptide-based β-secretase inhibitor was included as control (Lane 6, FIG. 11). To detect the N-terminal fragment of β-amyloid which is a product of APP processing, 6E10 antibody was employed. […] Recently, it has been reported that the commercially available peptide-based inhibitor had to be linked to an oligoarginine transporter peptide to have inhibitory activity against cells. Therefore, mimetic approach is adopted to produce cell permeable analogs. (Chang et al. J. Neurochemistry 2004; 89:1409-1416).
After confirming the ability of the oligo-arginine coupled APP inhibitors to enter the cells, the inhibitors were applied to HEK293-APP cells overexpressing APP to test their inhibitory activities on APP processing. […] This inhibitor started to show significant inhibitory activity beginning from 0.1 μM (lower panel).

What does the source list for CIQI (CIQI-NH2) [C-Sub MΔN3C3]?
inhibitory activity of deletion peptides on cleavage of Substrate M [1]: considerable inhibitory activity; inhibitory activity group on Substrate M cleavage [1]: medium activity

CIQIHF (CIQIHF-NH2) [c-Sub M ΔN3C1] was tested. Which “inhibitory activity of deletion peptides on cleavage of Substrate M” value [1] did it give?
Its value is “considerable inhibitory activity”.

What about the “inhibitory activity for cleavage of f-Sub M by rhBACE1” value ([1]; HC peptide 0.5 mM, f-Sub M 10 μM (Table 2)) of the same substance?
The value was “without sacrificing the inhibitory activity too much”.

What about the “inhibition of cleavage of Substrate M by β-secretase” value (“inhibition” below) [1] of the same substance?
Its value is “maintains much of the original activity of c-Sub M; also recorded: less active than longer HC peptide”.

And the “inhibitory activity relative to c-Sub M ΔN1C1” value ([1]; substrate concentration 10 μM)?
Its value is “about one tenth”.

And the “inhibitory activity group on Substrate M cleavage” value (“inhibitory activity group” below) [1]?
Its value is “less activity”.

For RLHFYLRLKA [Sub W-c], which “inhibition” value [1] is on record?
The value was “do not inhibit cleavage”.

And the “binding to Substrate W” value [2]?
The value was “do not bind”.

Which results are given for RLHLDLRLKA [Sub M-c]?
inhibitory activity for cleavage of f-Sub M by rhBACE1 ([1]; HC peptide 1 mM, f-Sub M 10 μM): not; inhibition of cleavage of Substrate M by β-secretase [1]: do not inhibit cleavage; binding to Substrate M [3]: do not bind and not

SEFC [c-Sub MΔC6] was tested. Which “inhibitory activity on APP processing” value ([4]; βCTF) did it give?
Its value is “none of the inhibitors tested showed inhibitory activity”.

With SEFCI (SEFCI-NH2) [c-SubM ΔC5] as the substance, how does the “inhibitory activity group” value [1] read?
The value was “medium activity”.

Which “inhibitory activity for cleavage of f-Sub M by rhBACE1” value ([1]; HC peptide 1 mM, f-Sub M 10 μM) does the source give for SEFCIHLHFR (SEFCIHLHFR-NH2) [c-Sub W] here?
Its value is “higher inhibitory activity”.

And the “inhibition” value [1]?
The value was “inhibit cleavage”.

What about the “inhibitory activity group” value [1] of the same substance?
The value was “medium activity”.

And the “binding to Substrate M” value [3]?
Its value is “weak but significant binding”.

What about the “binding to Substrate W” value [2] of the same substance?
The value was “bind”.

SEFCIQI (SEFCIQI-NH2) [c-SubM ΔC3] was tested. Which “inhibitory activity group” value [1] did it give?
Its value is “most active”.

SEFCIQIHF [c-Sub M ΔC1] was tested. Which “binding to Substrate M” value [3] did it give?
The value was “relatively high binding activity”.

What does the source list for “c-Sub M-R9: c-Sub M coupled with oligo-arginine (9 Arginines), labeled with FITC using a linker AHX ({FITC′-Ahx}-SEFCIQIHFRRRRRRRRRR)”?
inhibition of cleavage of Substrate M by β-secretase [1]: no inhibitory activity; inhibitory activity on APP processing ([4]; 10 μM): no inhibitory activity; inhibitory activity on APP processing ([4]; low concentration): some inhibitory activity

“c-Sub MΔN1C1-R9: c-Sub MΔN1C1 coupled with oligo-arginine (9 Arginines), labeled with FITC using a linker AHX ({FITC′-Ahx}-EFCIQIHFRRRRRRRRR)” was tested. Which “inhibition” value [1] did it give?
The value was “less inhibitory activity”.

And the “inhibitory activity on APP processing” value ([4]; βCTF)?
Its value is “inhibitory activity in a concentration dependent manner”.

From patent US7341991B2, “Inhibitors of amyloid precursor protein processing” (Posco, priority 2004, dated 2008)
